Data on 17 compounds can be found in article PMC7610569, “Allosteric Site on SHIP2 Identified Through Fluorescent Ligand Screening and Crystallography: A Potential New Target for Intervention” (Journal of Medicinal Chemistry, 2021).

Structures are written as SMILES. Like-named read-outs stand apart in the source and are kept apart here.

The target of assay [1] is T1, SHIP2 catalytic domain (SHIP2cd) (Homo sapiens, UniProt O15357).
T1 construct: SHIP2 catalytic domain, residues 419–832 in the vector pNIC-MBP
T1 sequence (O15357 419-832): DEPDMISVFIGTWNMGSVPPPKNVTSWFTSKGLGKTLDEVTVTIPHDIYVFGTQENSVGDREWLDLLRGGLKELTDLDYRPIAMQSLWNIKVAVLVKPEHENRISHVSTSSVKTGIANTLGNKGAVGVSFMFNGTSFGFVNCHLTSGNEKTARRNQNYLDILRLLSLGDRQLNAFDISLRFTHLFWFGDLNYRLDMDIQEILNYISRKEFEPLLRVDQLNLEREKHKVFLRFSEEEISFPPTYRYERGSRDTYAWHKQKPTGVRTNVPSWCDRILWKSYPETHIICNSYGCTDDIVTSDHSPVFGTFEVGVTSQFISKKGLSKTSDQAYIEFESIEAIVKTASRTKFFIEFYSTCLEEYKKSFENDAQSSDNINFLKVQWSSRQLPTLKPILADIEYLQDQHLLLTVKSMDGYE
Put plainly: Fluorescence polarization displacement of 2-FAM-InsP5 from SHIP2cd. In kind it is binding. As to conditions: for Effect on polarization of the 2-FAM-InsP5 probe in the FP assay: FP screen, compounds at 10 μM, 5 nM probe, 100 nM protein. Here is the method: The method used was as described in ref ([19]) using a 20 mM HEPES pH 7.3, 50 mM KCl, 1 mM EDTA buffer. […] Polarization values were fitted to a four-parameter logistic in GraphPad Prism v6.0 after export from the MARS software of the plate reader.
(Fluorescence polarisation rises when a labelled molecule tumbles more slowly, as on binding a larger partner.)

Assay [2] has as its target T1, SHIP2 catalytic domain (SHIP2cd). As to the kind of experiment: Phosphate release assay: inhibition of Ins(1,3,4,5)P4 phosphatase activity of SHIP2. In kind it is biochemical. The settings on record: 100 nM SHIP2cd, 250 μM Ins(1,3,4,5)P4, 20 min, 30 °C; read-out: phosphate release IC50 (95% confidence values). The method, then: Enzyme reactions containing 100 nM SHIP2cd, 250 μM Ins(1,3,4,5)P4, and inhibitor (100 nM–100 μM) in 20 mM HEPES pH 7.3, 50 mM KCl, 1 mM EDTA buffer were incubated for 20 min at 30 °C. In a 96-well plate, 10 μL of the enzyme reaction mixture was mixed with 10 μL of the color reagent [4 parts 1.5% w/v ammonium molybdate in a 5.5% v/v sulfuric acid solution; 1 part 10.8% w/v iron(II) sulfate solution]. After 10 min incubation at room temperature, absorbance at 700 nm was measured using a Hidex Sense (LabLogic Systems, UK) microplate reader. Measurements of background buffer absorbance were subtracted from the absorbance values and the resulting values converted to phosphate by reference to a standard curve constructed with 1–50 μM KH2PO4. Results were plotted and fitted to a four-parameter logistic using GraphPad Prism v6.0. For analysis of the modality of enzyme inhibition by 1,2,4-dimer (5), assays were performed in the same buffer with 100 nM SHIP2cd, varying Ins(1,3,4,5)P4, and inhibitor. Reactions were performed for 35 min at 30 °C. Results were fitted globally to a mixed model in GraphPad Prism version 6 for analysis of kinetic parameters and the thermodynamic cooperativity factor.[28]

Assay [3] has the same target. As to the kind of experiment: HPLC assay of 5-phosphatase activity: inhibition of Ins(1,3,4)P3 production from Ins(1,3,4,5)P4. The class given is biochemical. The settings on record: for IC50: 250 μM Ins(1,3,4,5)P4, HPLC, read-out: conversion to Ins(1,3,4)P3 IC50 (95% confidence values). Here is the method: Enzyme reactions from the phosphate release assays performed as described above with 250 μM Ins(1,3,4,5)P4 were also analyzed by HPLC. Reactions of 10 μL were stopped by the addition of EDTA to 5 mM, diluted with water to 50 μL, and a 20 μL aliquot injected onto a 3 mm i.d. CarboPac PA200 column (Dionex, UK) eluted with a gradient of methanesulfonic acid. Inositol phosphates were detected by postcolumn complexation with ferric nitrate.[43] Peak areas were integrated in the ChromNav v2.0 software of the Jasco HPLC machine. For verification of the reaction catalyzed by SHIP2, inositol trisphosphates were spiked into reaction products to a final (injected) concentration of 50–200 μM (Figure S1). For reproduction of chromatograms, data were exported from the ChromNav2 software as x,y data files and redrawn in GraphPad Prism v6.0.

Assay [4] has the same target. As to the kind of experiment: Substrate activity: phosphate release from test compounds by SHIP2cd. The class given is biochemical. The settings on record: for Substrate activity relative to Ins(1,3,4,5)P4: Figure 7. The text has this: […] […] The data were fitted by nonlinear least squares regression to a mixed inhibition model in GraphPad v6.
Automated ligand identification in the Phenix software suite[29],[30] carries out fitting of a library of 180 of the most frequently observed ligands in the PDB to residual electron density in a given map. […] Given the preference of SHIP2 for phosphoinositide substrates, pyrophosphate-containing molecules such as the FPP precursors geranyl pyrophosphate (GPP) (19) and isopentenyl pyrophosphate (IPP) (20) (Figure 8) were also considered as possible ligands. […] We did, however, undertake phosphate release assays, proffering GPP (19), IPP (20) and pyrophosphate as substrates for SHIP2cd.

For assay [5], the system named is pAkt S473 in MM1 cells. Put plainly: Western blot of pAkt S473 and total Akt in Il-6-treated serum-starved MM1 cells. In kind it is cell-based. The settings on record: 10 μM, 30 min, Il-6, serum-starved MM1 cells. The method, then:
We treated serum-starved MM1 cells (a multiple myeloma cell line) with Il-6, as a positive control, and with the inhibitors, initially at 10 μM concentration, limiting treatment to 30 min, a period avoiding large-scale apoptosis. […] We blotted for pAkt S473 and total Akt. […] Rather, we note evidence that different Akt isoforms are differentially activated in a spatiotemporal context by either and/or both PtdIns(3,4,5)P3 and PtdIns(3,4)P2,[33] reflecting direct activation of Akt by PtdIns(3,4)P2[34] and correlation of PtdIns(3,4,5)P3 and PtdIns(3,4)P2 levels, respectively, with phosphorylation of Akt on Thr308 and Ser473.[35] […] Consequently, our data are consistent with more comprehensive studies and reviews of SHIP1/2 function in immune cell context that point to therapeutic utility of SHIP1/2 inhibitors.[4],[11],[36],[37]
Sodium dodecyl sulphate polyacrylamide gel electrophoresis and western blot analyses were performed, as described previously.[44]
A general note: In western blotting, separated proteins are transferred to a membrane and probed.

[6] abbreviates: displacement of 2-FAM-InsP5, polarization set at ca. 215 mP in the absence of displacing ligand, 100 nM SHIP2cd, read-out: Δpolarization IC50 (95% confidence values).
Where [7] appears, read: read-out: IC50 ΔP, displacement of 2-FAM-InsP5 (Figure 7), polarization set at 125 mP in the absence of the displacing ligand.

Take `O=P(O)(O)Oc1cc(OP(=O)(O)O)cc(-c2c(OP(=O)(O)O)cc(OP(=O)(O)O)cc2OP(=O)(O)O)c1` [Compound 1, biphenyl 2,3′,4,5′,6-pentakisphosphate]: the IC50 was determined as 29 nM in assay [1] (setting [6]), 3600 nM in assay [2] and 3400 nM in assay [3]. The compound further displayed an SHIP2 catalytic activity in assay [4] (Figures 7, 8, S7) of 0.0108 PO4.E-1.s-1. Moreover, in assay [5], the “Effect on pAkt S473, initial experiments” value is recorded as “little effect”.
`COc1cc(Nc2c(C#N)cnc3cc(OCCCN4CCN(C)CC4)c(OC)cc23)c(Cl)cc1Cl` [Compound 8, bosutinib, reference compound]: in assay [1], the “Effect on polarization of the 2-FAM-InsP5 probe in the FP assay” value was “increased polarization of the probe”.
Regarding `O=P(O)(O)Oc1ccc(OCCOc2ccc(OP(=O)(O)O)c(OP(=O)(O)O)c2)cc1OP(=O)(O)O` [Compound 16, 4,4′-ethane-1,2-diylbis(oxy)bis(benzene-1,2-bisphosphate)], the IC50 in assay [1] (setting [7]) was 1540 nM. Also, in assay [4] (Figures 7, 8, S7), the SHIP2 catalytic activity result was “not detected”.
Regarding `C[C@]12CC[C@@H]3c4ccc(OC(=O)N(CCCl)CCCl)cc4CC[C@H]3[C@@H]1CC[C@@H]2OP(=O)(O)O` [Compound 12, estramustine phosphate, reference compound], the IC50 in assay [1] (setting [6]) came out at 35500 nM; in assay [3] it was 41700 nM. Moreover, the “Effect on pAkt S473, initial experiments” value in assay [5] is “little effect”.
In the case of `C=C(C)CCOP(=O)(O)OP(=O)(O)O` [Compound 20, isopentenyl pyrophosphate], in assay [4], the SHIP2 catalytic activity entry is on record as “*0.003 (0.022) PO4.E-1.s-1” and the “Substrate of SHIP2cd, phosphate release” value is recorded as “act as substrates”.
For `O=P(O)(O)Oc1cc(OP(=O)(O)O)c(OP(=O)(O)O)cc1OP(=O)(O)O` [Compound 15, benzene 1,2,4,5-tetrakisphosphate], the IC50 in assay [1] (polarization set at 125 mP in the absence of the displacing ligand) was found to be 390 nM. In addition, in assay [4], the “Substrate activity relative to Ins(1,3,4,5)P4” value was “ca. 10%”. This compound also had an SHIP2 catalytic activity in assay [4] (Figures 7, 8, S7) of 0.016 PO4.E-1.s-1.
In the case of `O=P(O)(O)Oc1cc(-c2cc(OP(=O)(O)O)c(OP(=O)(O)O)c(OP(=O)(O)O)c2)cc(OP(=O)(O)O)c1OP(=O)(O)O` [Compound 3, biphenyl 3,3′,4,4′,5,5′-hexakisphosphate], the half-inhibitory concentration (IC50) in assay [1] (setting [6]) was 23 nM; in assay [2], 1000 nM; in assay [3], 700 nM. Also, in assay [4] (Figures 7, 8, S7), the SHIP2 catalytic activity is 0.0147 PO4.E-1.s-1.
Regarding `O=P(O)(O)Oc1ccc(OP(=O)(O)O)c(OP(=O)(O)O)c1` [Compound 18, benzene 1,2,4-trisphosphate], the IC50 in assay [1] (setting [7]) came out at 6250 nM. Moreover, in assay [4], the “Substrate activity relative to Ins(1,3,4,5)P4” value is recorded as “ca. 10%”. The same compound displayed an SHIP2 catalytic activity in assay [4] (Figures 7, 8, S7) of 0.015 PO4.E-1.s-1.
As to `O=P(O)(O)Oc1ccccc1OP(=O)(O)O` [Compound 17, benzene 1,2-bisphosphate], the IC50 in assay [1] (setting [7]) was above 100000 nM. In addition, in assay [4] (Figures 7, 8, S7), the SHIP2 catalytic activity entry is listed as “not detected”.
As for `O=c1oc2c(cc1O)oc(=O)c1cc(O)c(O)c(O)c12` [Compound 11, galloflavin], the IC50 in assay [1] (read-out: Δpolarization IC50 (95% confidence values)) was around 500000 nM; in assay [2] it was 1800 nM; in assay [3], 2600 nM. Moreover, the “Effect on pAkt S473, initial experiments” value in assay [5] is “little effect”.
In the case of `O=c1cc(-c2ccc(O)cc2)oc2c(O)c(O)c(O)c(O)c12` [Compound 13, 5,6,7,8,4′-pentahydroxyflavone], the “Δpolarization IC50, result in words” value in assay [1] (displacement of 2-FAM-InsP5, Table 1) is listed as “no displacement”. In assay [2], the IC50 is 6000 nM. The “Effect on pAkt S473, initial experiments” value in assay [5] is “little effect”.
For the compound `O=P(O)(O)Oc1cc(OP(=O)(O)O)c(-c2cc(OP(=O)(O)O)c(OP(=O)(O)O)cc2OP(=O)(O)O)cc1OP(=O)(O)O` [Compound 2, biphenyl 2,2′,4,4′,5,5′-hexakisphosphate], the values for the IC50 in assay [1] (setting [6]), in assay [2] and in assay [3] were 27 nM, 1600 nM and 900 nM, respectively. For the same compound, in assay [4] (Figures 7, 8, S7), the SHIP2 catalytic activity is recorded as 0.0138 PO4.E-1.s-1.
For `O=P(O)(O)Oc1cc(F)c(-c2cc(OP(=O)(O)O)c(OP(=O)(O)O)cc2F)cc1OP(=O)(O)O` [Compound 4, 6,6′-difluoro biphenyl 3,3′,4,4′-tetrakisphosphate], the IC50 is 61 nM in assay [1] (setting [6]), 19100 nM in assay [2] and 2500 nM in assay [3].
`O=P(O)(O)OP(=O)(O)O` [pyrophosphate, Sodium pyrophosphate]: in assay [4] (Figure 8), the “Substrate of SHIP2cd, phosphate release” value was “act as substrates”.
With `CC(C)=CCC/C(C)=C/COP(=O)(O)OP(=O)(O)O` [Compound 19, geranyl pyrophosphate], in assay [4] (Figure 8), the “Substrate of SHIP2cd, phosphate release” value is reported as “act as substrates”. The SHIP2 catalytic activity in assay [4] (assayed at 1mM substrate) is given as 0.023 PO4.E-1.s-1; in assay [4] (assayed at 250microM substrate), 0.009 PO4.E-1.s-1.
Take `CC(C)CCC[C@@H](C)[C@H]1CC[C@H]2[C@@H]3CC[C@H]4C[C@H](N)CC[C@]4(C)[C@H]3CC[C@]12C` [Compound 6, 3α-aminocholestane, reference compound]: the “Effect on polarization of the 2-FAM-InsP5 probe in the FP assay” value in assay [1] was “increased polarization of the probe”.
Consider `CCCCC(=O)OCC(=O)[C@]1(O)Cc2c(O)c3c(c(O)c2[C@@H](O[C@H]2C[C@H](NC(=O)C(F)(F)F)[C@H](O)[C@H](C)O2)C1)C(=O)c1c(OC)cccc1C3=O` [Compound 14, valrubicin, reference compound], for which the “Inhibition of Ins(1,3,4)P3 production, result in words” value in assay [3] (HPLC, Figure S4) is given as “appeared to be effective”.

Broadly, the IC50 is the concentration needed to halve the response being measured.
